According to US20140107109A1, “AMINO-DIHYDROTHIAZINE AND AMINO-DIOXIDO DIHYDROTHIAZINE COMPOUNDS AS BETA-SECRETASE ANTAGONISTS AND METHODS OF USE” (Amgen Inc., priority 2012, published 2014):

Legend:
[1] = biological target: Beta Secretase enzyme (BACE1) (Homo sapiens, UniProt P56817); assay: In vitro enzymatic BACE FRET assay; format: biochemical; conditions: read-out: BACE1 FRET assay IC50
In short: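 Readout: dequenched fluorescence (ex 488 nm/[…]) after neutralizing with Tris buffer. Reactions, begun by adding 50 nM quenched peptide substrate spanning the BACE cleavage site, were incubated one hour at pH 4.2 in 0.05 M acetate with 100 uM genapol and 10% final DMSO.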

Cathepsin D (Cat D) = biological target: T1, Cathepsin D (Cat D) (Homo sapiens, UniProt P07339); assay: In vitro enzymatic Cathepsin D (Cat D) FRET assay; format: biochemical; conditions: read-out: CatD IC50
T1 construct: Recombinant Cat D was expressed in CHO cells; made in house; host or cells: CHO cells
In short: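 FRET read-out: a fluorophore/quencher-labelled peptide substrate is cleaved by 9 nM Cat D (recombinant, CHO-expressed) following a one-hour preincubation with inhibitor dilutions in DMSO. Tris buffer added to neutralize pH ends the reaction before fluorescence measurement.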

[2] = test system: Aβ40 in conditioned medium of cells stably expressing Amyloid Precursor Protein (APP); assay: In vitro BACE cell-based assay (HEK cell assay), Aβ40 sandwich ELISA; conditions: Homo sapiens, HEK293
In short: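 Aβ40 in conditioned medium was quantified by time-resolved fluorescence sandwich ELISA (pAb40 capture 3 h at 4 °C, biotin-6E10 detection 2 h at 4 °C) after 24 h compound exposure of APP-expressing cells. Doses spanned 10 points from 100 μM or 10 μM top, 0.1% DMSO; IC50 was derived from percent of control.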

Sequence of Beta Secretase enzyme (BACE1) (P56817 46-501): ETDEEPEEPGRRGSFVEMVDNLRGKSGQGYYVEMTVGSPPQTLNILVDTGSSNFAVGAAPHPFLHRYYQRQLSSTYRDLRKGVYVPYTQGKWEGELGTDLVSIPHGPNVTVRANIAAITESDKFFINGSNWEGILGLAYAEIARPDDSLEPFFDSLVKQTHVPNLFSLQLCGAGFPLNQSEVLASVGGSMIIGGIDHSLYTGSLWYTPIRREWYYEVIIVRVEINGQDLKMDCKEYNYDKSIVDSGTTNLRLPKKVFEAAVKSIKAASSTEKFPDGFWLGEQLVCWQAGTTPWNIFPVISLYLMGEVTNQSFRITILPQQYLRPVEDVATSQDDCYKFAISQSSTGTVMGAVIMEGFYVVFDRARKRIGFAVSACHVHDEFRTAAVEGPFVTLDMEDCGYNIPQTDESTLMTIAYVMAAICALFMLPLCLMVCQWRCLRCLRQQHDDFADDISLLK
T1 sequence (P07339 65-412, species assumed): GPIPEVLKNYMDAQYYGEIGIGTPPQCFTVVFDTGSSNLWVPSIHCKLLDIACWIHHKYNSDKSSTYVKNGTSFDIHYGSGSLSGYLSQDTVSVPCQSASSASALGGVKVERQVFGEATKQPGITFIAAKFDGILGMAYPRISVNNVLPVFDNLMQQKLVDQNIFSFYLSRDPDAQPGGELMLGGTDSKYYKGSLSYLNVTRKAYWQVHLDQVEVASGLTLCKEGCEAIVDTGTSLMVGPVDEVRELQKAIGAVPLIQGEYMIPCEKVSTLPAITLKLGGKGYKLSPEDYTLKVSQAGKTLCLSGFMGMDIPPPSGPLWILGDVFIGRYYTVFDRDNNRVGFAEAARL

Compound | IC50 [1] | IC50 (Cathepsin D (Cat D)) | IC50 [2]
COCc1cc(Cl)cnc1C(=O)Nc1ccc(F)c([C@]2(CF)CS(=O)(=O)C3(CCC3)C(N)=N2)c1 [Example 370, N-(3-((7S)-9-amino-7-(fluoromethyl)-5,5-dioxido-5-thia-8-azaspiro[3.5]non-8-en-7-yl)-4-fluorophenyl)-5-chloro-3-(methoxymethyl)-2-pyridinecarboxamide] | 0.81 nM | > 400000 nM | 27.3 nM
N#Cc1cnc(C(=O)Nc2ccc(F)c([C@]3(CF)CS(=O)(=O)C4(CCC4)C(N)=N3)c2)c(Cl)c1 [Example 372, N-(3-((7S)-9-amino-7-(fluoromethyl)-5,5-dioxido-5-thia-8-azaspiro[3.5]non-8-en-7-yl)-4-fluorophenyl)-3-chloro-5-cyano-2-pyridinecarboxamide] | 0.72 nM | 367000 nM | 7.1 nM
COc1cnc(C(=O)Nc2ccc(F)c([C@]3(CF)CS(=O)(=O)C4(CCC4)C(N)=N3)c2)c(C)c1 [Example 373, N-(3-((7S)-9-amino-7-(fluoromethyl)-5,5-dioxido-5-thia-8-azaspiro[3.5]non-8-en-7-yl)-4-fluorophenyl)-5-methoxy-3-methyl-2-pyridinecarboxamide] | 2.45 nM | 197000 nM | 14.8 nM
COc1cc(Cl)cnc1C(=O)Nc1ccc(F)c([C@]2(CF)CS(=O)(=O)C3(CCC3)C(N)=N2)c1 [Example 375, N-(3-((7S)-9-amino-7-(fluoromethyl)-5,5-dioxido-5-thia-8-azaspiro[3.5]non-8-en-7-yl)-4-fluorophenyl)-5-chloro-3-methoxy-2-pyridinecarboxamide] | 2.9 nM | 781000 nM | 29.8 nM
CC1(C)C(N)=N[C@](CF)(c2cc(NC(=O)c3ncc(C(F)(F)F)cc3Cl)ccc2F)CS1(=O)=O [Example 379, N-(3-((3S)-5-amino-3-(fluoromethyl)-6,6-dimethyl-1,1-dioxido-3,6-dihydro-2H-1,4-thiazin-3-yl)-4-fluorophenyl)-3-chloro-5-(trifluoromethyl)-2-pyridinecarboxamide] | 0.99 nM | 775000 nM | 11.5 nM
COc1cc(Cl)cnc1C(=O)Nc1ccc(F)c([C@]2(CF)CS(=O)(=O)C(C)(C)C(N)=N2)c1 [Example 382, N-(3-((3S)-5-amino-3-(fluoromethyl)-6,6-dimethyl-1,1-dioxido-3,6-dihydro-2H-1,4-thiazin-3-yl)-4-fluorophenyl)-5-chloro-3-methoxy-2-pyridinecarboxamide] | 1.8 nM | > 400000 nM | 17.3 nM
CC1(C)C(N)=N[C@](CF)(c2cc(NC(=O)c3ccc(C(F)(F)F)cn3)ccc2F)CS1(=O)=O [Example 383, N-(3-((3S)-5-amino-3-(fluoromethyl)-6,6-dimethyl-1,1-dioxido-3,6-dihydro-2H-1,4-thiazin-3-yl)-4-fluorophenyl)-5-(trifluoromethyl)-2-pyridinecarboxamide] | 2.62 nM | 217000 nM | 20 nM
CC1(C)C(N)=N[C@](C)(c2cc(Nc3ncnc4cc(C#N)cnc34)cnc2F)CS1(=O)=O [Example 384, 4-((5-((3R)-5-amino-3,6,6-trimethyl-1,1-dioxido-3,6-dihydro-2H-1,4-thiazin-3-yl)-6-fluoro-3-pyridinyl)amino)pyrido[3,2-d]pyrimidine-7-carbonitrile] | 6.36 nM | 47300 nM | 23.9 nM
CC1(C)C(N)=N[C@](C)(c2cc(Nc3nccc4cc(C#N)cnc34)cnc2F)CS1(=O)=O [Example 385, 8-((5-((3R)-5-amino-3,6,6-trimethyl-1,1-dioxido-3,6-dihydro-2H-1,4-thiazin-3-yl)-6-fluoro-3-pyridinyl)amino)-1,7-naphthyridine-3-carbonitrile] | 2.62 nM | 67600 nM | 3.7 nM
C[C@@]1(c2cc(Nc3nccc4cc(C#N)cnc34)cnc2F)CS(=O)(=O)C2(CCC2)C(N)=N1 [Example 386, 8-((5-((7R)-9-amino-7-methyl-5,5-dioxido-5-thia-8-azaspiro[3.5]non-8-en-7-yl)-6-fluoro-3-pyridinyl)amino)-1,7-naphthyridine-3-carbonitrile] | 4.09 nM | 54700 nM | 14.1 nM
CC1(C)C(N)=N[C@](CF)(c2cc(Nc3nccc4cc(C#N)cnc34)ccc2F)CS1(=O)=O [Example 387, 8-((3-((3S)-5-amino-3-(fluoromethyl)-6,6-dimethyl-1,1-dioxido-3,6-dihydro-2H-1,4-thiazin-3-yl)-4-fluorophenyl)amino)-1,7-naphthyridine-3-carbonitrile] | 0.44 nM | 117000 nM | 5.3 nM
Cc1cc(Cl)cnc1C(=O)Nc1ccc(F)c([C@]2(C)CS(=O)(=O)[C@@](C)(F)C(N)=N2)c1 [Example 388, N-(3-((3R,6R)-5-amino-6-fluoro-3,6-dimethyl-1,1-dioxido-3,6-dihydro-2H-1,4-thiazin-3-yl)-4-fluorophenyl)-5-chloro-3-methyl-2-pyridinecarboxamide] | 0.4 nM | 230000 nM | 47.9 nM
CC1(C)C(N)=N[C@](CF)(c2cc(NC(=O)c3ccc(OCC#CCF)cn3)ccc2F)CS1(=O)=O [Example 389, N-(3-((3S)-5-amino-3-(fluoromethyl)-6,6-dimethyl-1,1-dioxido-3,6-dihydro-2H-1,4-thiazin-3-yl)-4-fluorophenyl)-5-((4-fluoro-2-butyn-1-yl)oxy)-2-pyridinecarboxamide] | 0.26 nM | 268000 nM | 1.4 nM
Cc1c(C(=O)Nc2ccc(F)c([C@]3(CF)CS(=O)(=O)C(C)(C)C(N)=N3)c2)nc2ccc(C#N)cn12 [Example 390, N-(3-((3S)-5-amino-3-(fluoromethyl)-6,6-dimethyl-1,1-dioxido-3,6-dihydro-2H-1,4-thiazin-3-yl)-4-fluorophenyl)-6-cyano-3-methylimidazo[1,2-a]pyridine-2-carboxamide] | 4.85 nM | 379000 nM | 23.6 nM
CC1(C)C(N)=N[C@](CF)(c2cc(NC(=O)c3cn4cc(Cl)ccc4n3)ccc2F)CS1(=O)=O [Example 391, N-(3-((3S)-5-amino-3-(fluoromethyl)-6,6-dimethyl-1,1-dioxido-3,6-dihydro-2H-1,4-thiazin-3-yl)-4-fluorophenyl)-6-chloroimidazo[1,2-a]pyridine-2-carboxamide] | 9.69 nM | 303000 nM | 36.1 nM

Continued by falling IC50 [1], values first:

IC50 [1] | IC50 (Cathepsin D (Cat D)) | IC50 [2] | Compound
3 nM | 335000 nM | 9.8 nM | COc1cnc(C(=O)Nc2ccc(F)c([C@]3(CF)CS(=O)(=O)C(C)(C)C(N)=N3)c2)c(C)c1 [Example 377, N-(3-((3S)-5-amino-3-(fluoromethyl)-6,6-dimethyl-1,1-dioxido-3,6-dihydro-2H-1,4-thiazin-3-yl)-4-fluorophenyl)-5-methoxy-3-methyl-2-pyridinecarboxamide]
2.23 nM | 172000 nM | 61.5 nM | CC1(C)C(N)=N[C@](CF)(c2cc(NC(=O)c3cnc(C(F)F)cn3)ccc2F)CS1(=O)=O [Example 376, N-(3-((3S)-5-amino-3-(fluoromethyl)-6,6-dimethyl-1,1-dioxido-3,6-dihydro-2H-1,4-thiazin-3-yl)-4-fluorophenyl)-5-(difluoromethyl)-2-pyrazinecarboxamide]
1.8 nM | 282000 nM | 999 nM | CC1(C)C(N)=N[C@](CF)(c2cc(NC(=O)c3ncc(Cl)nc3Cl)ccc2F)CS1(=O)=O [Example 380, N-(3-((3S)-5-amino-3-(fluoromethyl)-6,6-dimethyl-1,1-dioxido-3,6-dihydro-2H-1,4-thiazin-3-yl)-4-fluorophenyl)-3,5-dichloro-2-pyrazinecarboxamide]
1.6 nM | > 400000 nM | 18 nM | CC1(C)C(N)=N[C@](CF)(c2cc(NC(=O)c3ncc(F)cc3F)ccc2F)CS1(=O)=O [Example 378, N-(3-((3S)-5-amino-3-(fluoromethyl)-6,6-dimethyl-1,1-dioxido-3,6-dihydro-2H-1,4-thiazin-3-yl)-4-fluorophenyl)-3,5-difluoro-2-pyridinecarboxamide]
1.56 nM | 391000 nM | 77 nM | Cc1cc(OCC2CC2)cnc1C(=O)Nc1ccc(F)c([C@]2(CF)CS(=O)(=O)C3(CCC3)C(N)=N2)c1 [Example 371, N-(3-((7S)-9-amino-7-(fluoromethyl)-5,5-dioxido-5-thia-8-azaspiro[3.5]non-8-en-7-yl)-4-fluorophenyl)-5-(cyclopropylmethoxy)-3-methyl-2-pyridinecarboxamide]
1.1 nM | 630000 nM | 61.6 nM | Cc1cc(OCC(F)(F)F)cnc1C(=O)Nc1ccc(F)c([C@]2(CF)CS(=O)(=O)C3(CCC3)C(N)=N2)c1 [Example 374, N-(3-((7S)-9-amino-7-(fluoromethyl)-5,5-dioxido-5-thia-8-azaspiro[3.5]non-8-en-7-yl)-4-fluorophenyl)-3-methyl-5-(2,2,2-trifluoroethoxy)-2-pyridinecarboxamide]
0.86 nM | 194000 nM | 53.9 nM | C=Cc1cc(Cl)cnc1C(=O)Nc1ccc(F)c([C@]2(CF)CS(=O)(=O)C(C)(C)C(N)=N2)c1 [Example 381, N-(3-((3S)-5-amino-3-(fluoromethyl)-6,6-dimethyl-1,1-dioxido-3,6-dihydro-2H-1,4-thiazin-3-yl)-4-fluorophenyl)-5-chloro-3-ethenyl-2-pyridinecarboxamide]
